Experimental findings from a melting point compilation (Tetko et al.; mined from patent text by program, amines drawn as free bases though some values may be those of a salt) are described below.

What is called melting point is the temperature of the solid-liquid transition. As to `CCCCNCc1cc(N)c(Cc2ccccc2)c(S(N)(=O)=O)c1`, the melting point lay in the range of 141 to 143 °C. The result for `Nc1cccc(-c2ccc(CCN3CCC4(CCCC4)CC3)cc2)n1` reads 130 to 132 °C; that for `COc1ccc2c(-c3ccc(OC)c(C)c3)noc2c1`, 93 to 95 °C; that for `CC(=O)N(C)c1nc(-c2ccccc2)c(-c2ccc(=O)n(C(C)C)n2)s1`, 165 to 167 °C. For the compound `COc1ccc(S(=O)(=O)NC(C)c2ccccc2-c2cc(F)ccc2F)cc1` (stereo not drawn), the melting point was in the range of 143 to 144 °C. In turn, `N#Cc1ccc2c(c1)CN1C(=Nc3cccnc3)SC[C@@H]1C2` displayed a melting point of 172 °C.

As to `CCOC(=O)Cc1csc(-c2ncccc2O)n1`, the melting point lay in the range of 85.5 to 86.5 °C. To `CCCCn1c(=O)c2c(NC)n[nH]c2n(Cc2ccccc2[N+](=O)[O-])c1=O` belongs over 300 °C; to `COc1cccn2c(=O)c(CCN3CCC(c4noc5cc(F)ccc45)CC3)c(C)nc12`, 209 °C. Turning to `Cn1c(COc2ccc(CC3SC(=O)N(C(c4ccccc4)(c4ccccc4)c4ccccc4)C3=O)cc2)nc2cc(Cl)cnc21` (stereo not drawn), the melting point lay within 82 to 84 °C. `O=C(OCc1ccccc1)C1(Nc2ccccc2)CCN(CCc2ccccc2)CC1` displayed a melting point of 76.7 °C. The result for `COc1ccc(S(C)(=O)=O)cc1C(=O)O` reads 189 to 191 °C; that for `COc1cccc2c(-c3ccnc(N[C@H]4CC[C@H](O)CC4)n3)n[nH]c12`, 243 to 245 °C. The compound `CCCCCN(CCC12CC3CC(CC(C3)C1)C2)C(=O)NCCc1ccccn1` returned a melting point of 80 to 100 °C. Consider `CCCCCS(=O)(=O)NC(=O)/C=C/c1ccc(OCCOCCOC)cc1Oc1ncc(C(F)(F)F)cc1Cl`, for which the melting point fell in the range of 81 to 83 °C. `CNC(=O)c1ccc(C=CC(=O)NCC(=O)N(C)c2ccc(Cl)c(CO)c2Cl)cc1` came in with a melting point of 207 to 211 °C. The compound `Cc1cc(C2=NOC(c3cc(Cl)cc(Cl)c3)(C(F)(F)F)O2)ccc1C(=O)O` (stereo not drawn) gave a melting point of 114 to 134 °C. To `CCCCOC(=O)c1[nH]c(=O)c2cc(OC(C)C)ccc2c1O` belongs 118 to 123 °C.

Compound `Cc1cc(C)c([N+](=O)[O-])cc1N1CCCCC1=O` gave a melting point of 134 to 135 °C.

`CC12CC(F)C3C4CCC(=O)C=C4CC(CCCCCBr)C3C1CCC2=O` (stereo not drawn) showed a melting point of 75 to 76 °C. The result for `CCc1nn(CCOc2ccc(CC3SC(=O)NC3=O)cc2)c(=O)c2ccccc12` (stereo not drawn) reads 174 °C. Compound `CC(C)COC(=O)c1ccc(N)cc1N` yielded a melting point of 54 to 55 °C. Regarding `COCC(=O)N(c1c(C)ccc2ccccc12)C(CCO)C(=O)OC` (stereo not drawn), the melting point lay within 132 to 137 °C.

Compound `COC(=O)CCCc1cc2nc(Cl)ccc2n1S(=O)(=O)c1cccc(N(C)C)c1` returned a melting point of 96 to 97 °C. The result for `Cc1ccc(S(=O)(=O)ON=C(C#N)c2ccc(F)cc2)cc1` reads 129 to 140 °C; that for `Cc1ccc(C(=O)O)c(OC(=O)C=Cc2ccccc2)c1`, 156 to 157 °C; that for `Clc1cccc2c1Nc1ccccc1N=C2N1CCN(Cc2ccc3c(c2)OCO3)CC1`, 160 to 162 °C. The result for `COc1nc2ccccc2nc1NC(=S)N1CCN(c2cc(C)cc(C)c2)CC1` reads 193 to 195 °C; that for `C1=Cn2cnnc2Cc2ccsc21`, 146 °C; that for `CCOCc1nc2c(N)nc3ccccc3c2s1`, 149 to 151 °C. To `O=C(OCCc1noc(-c2ccc(CN3CCCCCC3)s2)n1)c1ccccc1` belongs 121 to 123 °C; to `c1ccc(COc2ccc(-c3cc4ccccc4[nH]3)cc2)cc1`, 251 °C. In the case of `C=C(C(=O)c1ccc(Cl)cc1)c1ccc(Cl)cc1Cl`, the melting point lay in the range of 90 to 93 °C. In turn, `CNC(=O)Oc1cc(C)c(NC(=O)COC)c(C)c1` showed a melting point of 180 to 182 °C. As for `O=C1c2ccccc2C(=O)N1CC(=O)N(CC(=O)n1ccnc1)c1ccccc1`, the melting point is 206 °C. The result for `O=C(O)c1ccc2c(c1)C(=O)N(c1ccccc1C(=O)O)C2=O` reads 262 to 264 °C. The result for `CCNC(=S)NS(=O)(=O)c1cnccc1NC1CCCCCCC1` reads 196 to 198 °C; that for `CCCCS(=O)(=O)Cc1ccc(C(=O)Nc2ccc3cc(CN4CCCC4)cnc3c2C)cc1`, 199 °C; that for `COc1cc2c(cc1Nc1ncc(Cl)c(N[C@H]3[C@@H](C(N)=O)[C@@H]4C=C[C@H]3C4)n1)CCN(C[C@H](O)C(F)(F)F)CC2`, 120 to 126 °C. As for `CCc1cc(O)cc(=O)o1`, the melting point lay within 106 to 108 °C. In turn, `N#CCCNC(=O)c1n[nH]cc1NC(=O)c1ccc(Br)o1` returned a melting point of 220 to 222 °C. For the compound `CS(=O)(=O)C(=C1CN(C(c2ccccc2)c2ccccc2)C1)c1cccc(Cl)c1Cl`, the melting point stood at 201 °C. As to `COC(=O)CCc1ccc(C(=O)O)cc1`, the melting point is 146 to 148 °C. Compound `CCc1cncnc1O` showed a melting point of 95 to 97 °C.

For the compound `COC(=O)c1nc(N)sc1-c1ccccc1`, the melting point was 208 °C. For the compound `CC(C)(C)OC(=O)N1CCC(C(=O)c2cccs2)CC1`, the melting point was 154 to 156 °C. To `O=C1Nc2cc(CN3CCN(c4ccc(C(=O)N5CCCC5)cc4)CC3)cnc2N2CCC[C@@H]12` belongs 121 °C; to `COc1ccc([C@H]2Cc3c(cccc3C(F)(F)F)NC(=O)[C@H]2O)cc1` (relative stereo), 205 to 208 °C. The result for `CCCn1c(=O)c(=O)[nH]c2cc([N+](=O)[O-])c(-n3ccc(=O)c([N+](=O)[O-])c3)cc21` reads over 300 °C; that for `Cc1cccc(C)c1-c1cc(Cl)cc2c1OC(CN1CCCCC1)C2` (stereo not drawn), over 235 °C. Turning to `CCCCC(=O)Nc1ccc(C(=O)OC)cc1[N+](=O)[O-]`, the melting point fell in the range of 106 to 107 °C. The result for `CCC(C)(C)Nc1c(NCc2ccc(C)c(Cl)c2)c(=O)c1=O` reads 261 to 263 °C; that for `CCOc1cc(C(CS(C)(=O)=O)N2Cc3cccc(NC(=O)C4CC4)c3C2=O)ccc1OC(F)F` (stereo not drawn), 115 to 117 °C; that for `CCOC(=O)C(=Cc1ccc(N(C)C)cc1[N+](=O)[O-])C(=O)OCC`, 101 to 102 °C. With `COc1cc(Nc2nc3cccc(-c4ccc5[nH]cnc5c4)c3o2)cc(OC)c1OC`, the melting point was in the range of 150 to 156 °C. To `C[C@H](C(=O)NC[C@H](COC(=O)C(C)(C)C)Cc1ccccc1)c1ccc(NS(C)(=O)=O)c(F)c1` belongs 40 to 42 °C.

With `O=C(CCCCCCCCC1CO1)OCCOC(=O)CCCCCCCCC1CO1` (stereo not drawn), the melting point lay within 39 to 40 °C. To `Cc1ccc(S(=O)(=O)NC(=O)C2C(=O)CC(C(C)(C)C)CC2=O)cc1` (stereo not drawn) belongs 162 to 163 °C; to `Cn1cc(CCN2CCC3(CC2)CNC(=O)O3)c2ccccc21`, 158 to 161 °C. On to `CCOC(=O)C1=C(C)NC(C#N)=C(C(=O)OCC)C1c1ccccc1Cl` (stereo not drawn), for which the melting point was 136 to 137 °C. The compound `CC1(C)NC2C(=O)N(C(O)C(=O)OCC(Cl)(Cl)Cl)C2S1` (stereo not drawn) showed a melting point of 125 to 127 °C. `Cc1ccc(-c2cc(N)nn2C(=O)OC(C)(C)C)cc1`: the melting point was found to be 147 °C. `CN(c1cc(OCC(N)=O)cc2cc(C3=NCC(CN4CCS(=O)CC4)S3)[nH]c12)S(=O)(=O)c1ccccn1` (stereo not drawn) yielded a melting point of 160 to 161 °C.

As for `CCNC(=O)[C@@H]1CCCN1C(=O)[C@H](C)NC(=O)C12CC3CC(CC(C3)C1)C2`, the melting point was in the range of 116 to 118 °C.

`CNC(=O)[C@@H](NC(=O)Nc1n[nH]c(=S)s1)C(C)OCc1ccccc1` (stereo partly drawn) displayed a melting point of 187 to 189 °C. Compound `CC(=O)Nc1cc2c(cc1C#N)[C@@H](N1CCCC1)[C@H](O)C(C)(C)O2` (relative stereo) showed a melting point of 175 to 176 °C. The result for `Clc1ccc(Cn2ccc3cc(OCc4ccc5ccccc5n4)ccc32)cc1` reads 102 to 104 °C; that for `CC(C)CCSc1cc(C(=O)O)cc([N+](=O)[O-])c1-c1ccccc1`, 143 to 144 °C; that for `O=Cc1ccc(-c2cc(O)ccc2O)cc1`, 203 to 205 °C. To `N#CC1=CSCC1Nc1c(Cl)cccc1Cl` (stereo not drawn) belongs 170 to 173 °C.

Take `COc1cc(C2=CCCc3ccccc32)c(Cl)cc1C(=O)N1Cc2cccn2Cc2ccccc21`: the melting point lay in the range of 209 to 210 °C.

With `CON=CC(C)(C)C(O)(COc1cccc2ccccc12)Cn1ccnc1` (stereo not drawn), the melting point fell in the range of 177 to 178 °C. Turning to `C=CCn1c(C)c(C)c2cnnc(OCc3ccc(F)cc3F)c21`, the melting point was in the range of 125 to 126 °C. In turn, `O=C(O)CCCCCCCn1c(-c2ccc(O)cc2)nc(-c2ccccc2)c1-c1ccccc1` gave a melting point of 167 °C. To `CSc1nccc(NC(N)=NCC(F)(F)F)n1` belongs 201 to 202 °C; to `N#Cc1cc(F)ccc1-c1cncc(OC2SCC(O)C(O)C2O)c1` (stereo not drawn), 198 to 200 °C. To `CC(SC1COC(c2ccc(C(=O)Nc3ccc(C(F)(F)F)cc3)cc2)OC1)C(O)(Cn1cncn1)c1ccc(F)cc1F` (stereo not drawn) belongs 210 °C.

As for `CNc1nc(Br)cn2cc(C(N)=O)nc12`, the melting point worked out at 312 °C. To `Cn1cc(-c2nnn[nH]2)c(=O)c2ccc(F)cc21` belongs 290 to 292 °C; to `COC(=O)CCCCCCCCCCCCCCCCCOS(=O)(=O)c1ccc(C)cc1`, 67.5 to 68.5 °C; to `CS(=O)(=O)NCc1cccc(-c2nc(=O)c3ccccc3s2)n1`, 188 to 190 °C. Turning to `CN1CCN(c2ccc(S(=O)(=O)Oc3cccc([N+](=O)[O-])c3)cc2)C1=O`, the melting point lay within 167 to 169 °C. The result for `CCOc1ccccc1C=[N+]([O-])C1CCC1` reads 76 °C. Compound `O=C(NCCSCc1cccc(Cl)c1)c1c([N+](=O)[O-])cccc1[N+](=O)[O-]` displayed a melting point of 139 to 140 °C. Compound `NC(=O)Cc1cc(Cl)ccc1[N+](=O)[O-]` registered a melting point of 115 to 116 °C.

With `CCCOc1ccc(F)c2c(=O)c(-c3ccc(C(=O)N4CCOCC4)cc3)c[nH]c12`, the melting point lay within 234 to 236 °C.

In turn, `CC1(C)NC(=S)C1(C)C` had a melting point of 117 to 118 °C. Compound `CCOc1nn(Cc2ccc(OCCc3ccc(CC)cn3)cc2)cc1CCC(=O)O` yielded a melting point of 89 to 90 °C.
